# In ChEMBL document CHEMBL5543109, “Novel β-Hairpin Antimicrobial Peptide Containing the β-Turn Sequence of -NG- and the Tryptophan Zippers Facilitate Self-Assembly into Nanofibers, Exhibiting Excellent Antimicrobial Performance” (J Med Chem, 2024):
# The source made the active and inactive calls. No cut-off for these calls is given here.
# Key:
# Staphylococcus aureus [1] = assay: Synergistic antibacterial activity against Staphylococcus aureus 125 assessed as fractional inhibitory concentration index incubated for 18 hrs in presence of bacitracin by checkerboard assay; format: functional
# Staphylococcus aureus [2] = assay: Induction of morphological change in Staphylococcus aureus assessed as morphological distortion at 2 times MIC incubated for 30 mins by SEM analysis; format: functional, organism-based
# [3] = Self-assembly property of compound in PBS assessed as critical aggregation concentration incubated for 48 hrs; format: physicochemical; conditions: buffer
# Klebsiella pneumoniae = assay: Bactericidal activity against Klebsiella pneumoniae ATCC 700603 incubated for 18 hrs by broth microdilution method; format: functional
# Staphylococcus aureus [4] = assay: Antibacterial activity against methicillin resistant Staphylococcus aureus incubated for 18 hrs by broth microdilution method; format: functional
# Pseudomonas aeruginosa [5] = assay: Antibacterial activity against Pseudomonas aeruginosa incubated for 18 hrs in presence of NaCl by broth microdilution method; format: functional, organism-based
# Staphylococcus aureus [6] = assay: Antibacterial activity against Staphylococcus aureus 794 infected in BALB/c mouse skin wound infection model assessed as wound healing by measuring thickened scab at 1 mg/ml, ip pre-infected with bacteria for 24 hrs followed by compound addition and measured on day 9; format: functional, organism-based; conditions: time 9.0 day
# Staphylococcus aureus [7] = assay: Additive antibacterial activity against Staphylococcus aureus 794 assessed as fractional inhibitory concentration index incubated for 18 hrs in presence of ciprofloxacin by checkerboard assay; format: functional
# Staphylococcus aureus [8] = assay: Antibacterial activity against Staphylococcus aureus S125 incubated for 18 hrs by broth microdilution method; format: functional
# [9] = Toxicity in BALB/c mouse infected with Staphylococcus aureus 794 assessed as increase in number of sweat glands at 1 mg/ml, ip pre-infected with bacteria for 24 hrs followed by compound addition and measured after 13 days by H and E staining based histopathological analysis; format: organism-based; conditions: in vivo, 312 h, time 13 day
# Escherichia coli [10] = assay: Antibacterial activity against rifampicin resistant Escherichia coli incubated for 18 hrs by broth microdilution method; format: functional
# Escherichia coli [11] = assay: Additive antibacterial activity against Escherichia coli assessed as fractional inhibitory concentration index incubated for 18 hrs in presence of kanamycin by checkerboard assay; format: functional
# Staphylococcus aureus [12] = assay: Additive antibacterial activity against methicillin resistant Staphylococcus aureus 75 assessed as fractional inhibitory concentration index incubated for 18 hrs in presence of streptomycin by checkerboard assay; format: functional
# Cell membrane [13] = assay: Induction of inner membrane permeabilization in Escherichia coli ML-35 at 1 to 4 times MIC measured every 5 mins for 120 mins by ONPG dye based assay; format: cell membranes
# Pseudomonas aeruginosa [14] = assay: Additive antibacterial activity against Pseudomonas aeruginosa assessed as fractional inhibitory concentration index incubated for 18 hrs in presence of rifampin by checkerboard assay; format: functional
# Staphylococcus aureus [15] = assay: Antibacterial activity against Staphylococcus aureus incubated for 18 hrs in presence of NH4Cl by broth microdilution method; format: functional, organism-based
# Pseudomonas aeruginosa [16] = assay: Induction of morphological change in Pseudomonas aeruginosa assessed as bacterial swelling at 2 times MIC incubated for 30 mins by SEM analysis; format: functional, organism-based
# [17] = test system: Staphylococcus epidermidis; assay: Bactericidal activity against Staphylococcus epidermidis ATCC 12228 incubated for 18 hrs by broth microdilution method; format: functional
# Staphylococcus aureus [18] = assay: Antibacterial activity against methicillin resistant Staphylococcus aureus 113 incubated for 18 hrs by broth microdilution method; format: functional
# Staphylococcus aureus [19] = assay: Antibacterial activity against Staphylococcus aureus 794 infected in BALB/c mouse skin wound infection model assessed as reduction in TNFalpha level at 1 mg/ml, ip pre-infected with bacteria for 24 hrs followed by compound addition and measured after 13 days post infection in presence of vancomycin; format: functional, organism-based; conditions: time 12.0 day
# Staphylococcus aureus [20] = assay: Antibacterial activity against Staphylococcus aureus at 2 times MIC preincubated for 1 hr with trypsin followed by enzyme inactivation and bacterial addition and measured after 18 hrs; format: functional; conditions: time 19 hrs
# [21] = Self-assembly property of compound in water assessed as beta-sheet formation by measuring particle size at 50 uM by […]; format: physicochemical; conditions: buffer
# Cell membrane [22] = assay: Induction of cell membrane disruption in Staphylococcus aureus assessed as PI uptake at 4 times MIC incubated for 2 hrs by PI staining based flow cytometry analysis (reference value: 15.9%); format: cell membranes
# Staphylococcus aureus [23] = assay: Synergistic antibacterial activity against methicillin resistant Staphylococcus aureus 75 assessed as fractional inhibitory concentration index incubated for 18 hrs in presence of rifampin by checkerboard assay; format: functional
# Staphylococcus aureus [24] = assay: Synergistic antibacterial activity against methicillin resistant Staphylococcus aureus assessed as fractional inhibitory concentration index incubated for 18 hrs in presence of rifampin by checkerboard assay; format: functional
# Pseudomonas aeruginosa [25] = assay: Antibacterial activity against Pseudomonas aeruginosa incubated for 18 hrs in presence of CaCl2 by broth microdilution method; format: functional, organism-based
# Staphylococcus aureus [26] = assay: Antibacterial activity against Staphylococcus aureus 794 infected in BALB/c mouse skin wound infection model assessed as wound healing at 1 mg/ml, ip pre-infected with bacteria for 24 hrs followed by compound addition and measured after 13 days post infection; format: functional, organism-based; conditions: time 12.0 day
# Staphylococcus aureus [27] = assay: Antibacterial activity against Staphylococcus aureus infected in BALB/c mouse systemic infection model assessed as reduction in liver bacterial load at 5 to 10 mg/kg, ip measured after 8 hrs; format: functional, organism-based; conditions: dose 5-10 mg/kg
# Pseudomonas aeruginosa [28] = assay: Antibacterial activity against Pseudomonas aeruginosa ATCC 27853 incubated for 18 hrs by broth microdilution method; format: functional
# [29] = Acute toxicity in ip dosed mouse by karber method; format: organism-based; conditions: in vivo, read-out: LD50
# Cell membrane [30] = assay: Induction of cell membrane disruption in Staphylococcus aureus assessed as PI uptake incubated for 2 hrs by PI staining based confocal laser scanning microscopy; format: cell membranes
# Staphylococcus aureus [31] = assay: Antibacterial activity against kanamycin resistant Staphylococcus aureus assessed as fractional inhibitory concentration index incubated for 18 hrs in presence of kanamycin by checkerboard assay; format: functional
# Staphylococcus aureus [32] = assay: Induction of morphological change in Staphylococcus aureus assessed as bacterial lysis at 2 times MIC incubated for 30 mins by SEM analysis; format: functional, organism-based
# Pseudomonas aeruginosa [33] = assay: Induction of morphological change in Pseudomonas aeruginosa assessed as bacterial deformation at 2 times MIC incubated for 30 mins by SEM analysis; format: functional, organism-based
# Staphylococcus aureus [34] = assay: Synergistic antibacterial activity against methicillin resistant Staphylococcus aureus 113 assessed as fractional inhibitory concentration index incubated for 18 hrs in presence of kanamycin by checkerboard assay; format: functional
# [35] = Acute toxicity in mouse assessed as hepatocyte necrosis at 230.5 mg/kg, ip by H and E staining based assay; format: organism-based; conditions: hepatocytes
# Staphylococcus aureus [36] = assay: Antibacterial activity against Staphylococcus aureus incubated for 18 hrs in presence of NaCl by broth microdilution method; format: functional, organism-based
# Staphylococcus aureus [37] = assay: Antibacterial activity against Staphylococcus aureus ATCC 25923 infected in BALB/c mouse skin wound infection model assessed as reduction in wound bacterial load at 1 mg/ml, ip administered at 1 hr interval for total 6 treatment and measured after 1 hr post last dose; format: functional, organism-based; conditions: time 7.0 hrs
# Staphylococcus aureus [38] = assay: Antibacterial activity against Staphylococcus aureus ATCC 25923 incubated for 18 hrs by broth microdilution method; format: functional
# Erythrocyte = assay: Hemolytic activity in mouse erythrocytes assessed as concentration required to cause 10% hemolysis incubated for 1 hr; format: toxicity, cell-based
# Staphylococcus aureus [39] = assay: Antibacterial activity against kanamycin resistant Staphylococcus aureus incubated for 18 hrs by broth microdilution method; format: functional
# Staphylococcus aureus [40] = assay: Antibacterial activity against Staphylococcus aureus 794 infected in BALB/c mouse skin wound infection model assessed as reduction in wound area at 1 mg/ml, ip pre-infected with bacteria for 24 hrs followed by compound addition and measured on day 9 to 13; format: functional, organism-based; conditions: time 9-13 day
smiles,measurement,setting,value
NCCCC[C@@H](NC(=O)[C@H](N)Cc1c[nH]c2ccccc12)C(=O)N[C@H](Cc1c[nH]c2ccccc12)C(=O)N[C@H](CCCCN)C(=O)N[C@H](Cc1c[nH]c2ccccc12)C(=O)N[C@@H](CC(N)=O)C(=O)NCC(=O)N[C@H](Cc1c[nH]c2ccccc12)C(=O)N[C@H](CCCCN)C(=O)N[C@H](Cc1c[nH]c2ccccc12)C(=O)N[C@H](CCCCN)C(=O)N[C@H](Cc1c[nH]c2ccccc12)C(N)=O,fractional inhibitory concentration index (FICI),Staphylococcus aureus [1],0.5
same,Activity,Staphylococcus aureus [2],Active
same,CAC,[3],7.78 µM
same,MBC,Klebsiella pneumoniae,8 µM
same,MIC,Staphylococcus aureus [4],8 µM
same,Activity,Pseudomonas aeruginosa [5],Active
same,Activity,Staphylococcus aureus [6],Active
same,fractional inhibitory concentration index (FICI),Staphylococcus aureus [7],0.563
same,MIC,Staphylococcus aureus [8],8 µM
same,Activity,[9],Toxic
same,MIC,Escherichia coli [10],8 µM
same,fractional inhibitory concentration index (FICI),Escherichia coli [11],0.563
same,fractional inhibitory concentration index (FICI),Staphylococcus aureus [12],0.75
same,Activity,Cell membrane [13],Active
same,fractional inhibitory concentration index (FICI),Pseudomonas aeruginosa [14],0.563
same,Activity,Staphylococcus aureus [15],Active
same,Activity,Pseudomonas aeruginosa [16],Active
same,MBC,[17],4 µM
same,MIC,Staphylococcus aureus [18],8 µM
same,Activity,Staphylococcus aureus [19],Active
same,Activity,Staphylococcus aureus [20],100%
same,Activity,[21],126.5 nm
same,Activity,Cell membrane [22],95.5%
same,fractional inhibitory concentration index (FICI),Staphylococcus aureus [23],0.313
same,fractional inhibitory concentration index (FICI),Staphylococcus aureus [24],0.313
same,Activity,Pseudomonas aeruginosa [25],Active
same,Activity,Staphylococcus aureus [26],Active
same,Activity,Staphylococcus aureus [27],Active
same,MIC,Pseudomonas aeruginosa [28],4 µM
same,LD50,[29],230 mg/kg
same,Activity,Cell membrane [30],Dose-Dependent Effect
same,fractional inhibitory concentration index (FICI),Staphylococcus aureus [31],0.563
same,Activity,Staphylococcus aureus [32],Active
same,Activity,Pseudomonas aeruginosa [33],Active
same,fractional inhibitory concentration index (FICI),Staphylococcus aureus [34],0.5
same,Activity,[35],Toxic
same,Activity,Staphylococcus aureus [36],Active
same,Activity,Staphylococcus aureus [37],Active
same,MIC,Staphylococcus aureus [38],4 µM
same,MHC,Erythrocyte,> 512 µM
same,MIC,Staphylococcus aureus [39],4 µM
same,Activity,Staphylococcus aureus [40],Active
